From paper PMC11990924, “Inhibition of Tyrosinase and Melanogenesis by Carboxylic Acids: Mechanistic Insights and Safety Evaluation” (Molecules, 2025)

System: B16-F10 cells
Test: Proteomic analysis of B16-F10 cells (DIA mass spectrometry)
Format: cell-based, mouse
Procedure: B16-F10 cells were treated with various concentrations of carboxylic acids following the same culture protocol used for melanin inhibition assays. After treatment, the cells were collected and submitted to Shanghai Zhongke Xinming Biotechnology Co., Ltd. (Shanghai, China) for proteomics analysis. The collected cells were lysed with an appropriate volume of SDT lysis buffer (4% SDS, 100 mM Tris-HCl, pH 7.6) to extract proteins. DTT was added to reduce disulfide bonds, followed by incubation at room temperature for 1 h. Subsequently, iodoacetamide was added, and the mixture was reacted in the dark at room temperature for 30 min. The proteins were then digested with trypsin overnight. The resulting peptide fragments were desalted using a C18 cartridge. After freeze-drying, the peptides were resuspended in 40 μL of 0.1% formic acid solution, and the peptide concentration was determined by measuring the absorbance at 280 nm. An appropriate amount of internal reference for targeted proteomics (iRT) standard peptides was added to each sample for data-independent acquisition (DIA) mass spectrometry analysis. Chromatographic separation was performed using a nanoflow Evosep One system. The separated samples were analyzed by DIA mass spectrometry using a timsTOF Pro mass spectrometer (Bruker Daltonics, Bremen, Germany). Detection was conducted in positive-ion mode, with MS and MS/MS scanning ranges set from 100 to 1700 m/z. MS2 data acquisition was performed in DIA mode, with four TIMS scan windows, each accumulating for 100 ms. In PASEF mode, the collision energy varied linearly with ion mobility (1/K0), ranging from 20 to 59 eV for ions with 1/K0 values between 0.85 and 1.30 Vs/cm^2. The DIA data were processed using Spectronaut 19 software with the following parameter settings: retention time prediction type set to dynamic iRT, interference correction on MS2 level enabled, cross-run normalization enabled, maximum missed cleavage sites set to 2, fixed modification set to Carbamidomethyl (C), and variable modifications set to Oxidation (M) and Acetyl (Protein N-term). All results were filtered with a Q-value cutoff of 0.01, corresponding to a false discovery rate (FDR) of less than 1%. The target protein set was annotated using Blast2GO (version BLASTP 2.8.0+). The process included four steps: sequence alignment (Blast), GO mapping, GO annotation, and additional annotation augmentation using InterProScan. Using the KOBAS 3.0 software, KEGG pathway annotation was performed on the target protein set. Fisher’s exact test was employed to compare the distribution of GO categories in the target protein set and the overall protein set, thereby conducting enrichment analysis of the GO annotations in the target protein set. The proteomics dataset generated in this study has been made publicly available through the PRIDE ProteomeXchange Consortium with the dataset identifier PXD061919.

## O=C(O)C(O)Cc1ccccc1 (stereo not shown) [3-phenyllactic acid]
6 mM vs control, Table S1
  ATP8 protein fold change: 0.4618
  Aanat protein fold change: 2.208
  Acta1 protein fold change: 2.921
  Adgrg1 protein fold change: 0.4728
  Agtrap protein fold change: 0.4687
  Antxr2 protein fold change: 0.4747
  Aplp2 protein fold change: 0.2246
  Apob protein fold change: 0.4962
  Apoh protein fold change: 0.4857
  App protein fold change: 0.3729
  Arl6ip1 protein fold change: 0.4901
  Bace2 protein fold change: 0.4069
  Bcl9 protein fold change: 2.336
  Bltp1 protein fold change: 2.099
  Bst2 protein fold change: 0.3949
  CUB domain-containing protein (Q3TD85) fold change: 0.4924
  Cav2 protein fold change: 0.4909
  Cdc42se1 protein fold change: 0.3683
  Cisd2 protein fold change: 0.4369
  Cks2 protein fold change: 0.4644
  Ctns protein fold change: 0.3087
  Cxne protein fold change: 0.3753
  Cyp51a1 protein fold change: 0.3449
  Ddit3 protein fold change: 2.105
  Dgcr2 protein fold change: 0.4147
  Dnajc19 protein fold change: 0.3587
  E2f5 protein fold change: 2.473
  Eng protein fold change: 0.3635
  Entpd7 protein fold change: 0.3998
  Epb41l4b protein fold change: 2.181
  Fam174b protein fold change: 0.4339
  Fau protein fold change: 4.21
  Fosl2 protein fold change: 5.488
  Fv4 protein fold change: 0.4177
  Ginm1 protein fold change: 0.3741
  Glmp protein fold change: 0.4495
  H1-0 protein fold change: 2.057
  H3c14 protein fold change: 3.134
  Hbbt1 protein fold change: 0.388
  Hmgcs1 protein fold change: 0.3916
  Hspa13 protein fold change: 0.4084
  Ifi205 protein fold change: 2.571
  Ifitm2 protein fold change: 0.4697
  Il10rb protein fold change: 0.3763
  Itih3 protein fold change: 0.3529
  Itm2b protein fold change: 0.2428
  Itm2c protein fold change: 0.3416
  Kbtbd2 protein fold change: 0.4177
  Kcnj13 protein fold change: 0.3629
  Laptm4a protein fold change: 0.2076
  Laptm4b protein fold change: 0.3669
  Ldha protein fold change: 2.104
  Ldlr protein fold change: 0.4018
  Mast4 protein fold change: 2.12
  Met protein fold change: 0.4986
  Mfap3 protein fold change: 0.4088
  Mlana protein fold change: 0.2524
  Mtfr2 protein fold change: 0.4374
  Myl6 protein fold change: 0.4951
  Ndfip1 protein fold change: 0.3294
  Nfatc2 protein fold change: 0.2366
  Nrp1 protein fold change: 0.4865
  Nrp2 protein fold change: 0.3408
  Pacsin2 protein fold change: 0.3403
  Phyhd1 protein fold change: 2.286
  Pmel protein fold change: 0.4916
  Psap protein fold change: 0.4703
  Ptprs protein fold change: 0.4896
  Rad51ap1 protein fold change: 0.4291
  Rnf220 protein fold change: 0.4969
  Sdc1 protein fold change: 0.244
  Sdcbp protein fold change: 0.4883
  Serac1 protein fold change: 2.052
  Sfpq protein fold change: 2.482
  Sgce protein fold change: 0.4392
  Slc2a6 protein fold change: 0.4306
  Slc4a2 protein fold change: 0.48
  Slc7a1 protein fold change: 0.4712
  Slc24a5 protein fold change: 0.4286
  Slc35b2 protein fold change: 0.3476
  Slc38a2 protein fold change: 0.3733
  Slc45a2 protein fold change: 0.451
  Sparcl1 protein fold change: 0.4926
  Syt4 protein fold change: 0.3106
  Tagln2 protein fold change: 0.2815
  Tgoln1 protein fold change: 0.479
  Tial1 protein fold change: 2.492
  Tmed1 protein fold change: 0.4801
  Tmem14c protein fold change: 4.332
  Tmem59 protein fold change: 0.233
  Tmem176a protein fold change: 0.2277
  Tmem176b protein fold change: 0.171
  Trib3 protein fold change: 2.531
  Try10 protein fold change: 0.2906
  Tspan3 protein fold change: 0.3162
  Tspan10 protein fold change: 0.3282
  Tubb4a protein fold change: 3.655
  Tyrp1 protein fold change: 0.3578
  U2af1l4 protein fold change: 2.0208
  Ube2j1 protein fold change: 0.3514
  Ubl3 protein fold change: 0.2819
  Zbtb3 protein fold change: 2.269
  env protein fold change: 0.4886
  il6st protein fold change: 0.4117
  p53 (Fragment) (A6YM30) protein fold change: 3.222
Mouse B16-F10 cells, proteomic analysis
  regulation of MMP9 or PPARG: did not significantly downregulate
